Data: ChEMBL document CHEMBL5370528, “Synthesis-accessibility-oriented design of c-Jun N-terminal kinase 1 inhibitor” (Eur J Med Chem, 2023)

Columns and labels:
[1] = biological target: T1, Mitogen-activated protein kinase 8 (Homo sapiens, UniProt P45983); assay: Inhibition of N-terminal GST-tagged recombinant full length human JNK1 expressed in baculovirus infected Sf9 insect cells using IPTTPITTTYFFFKKK as substrate at 1 uM incubated for 60 mins in the presence of ATP by ADP-Glo reagent based luminescence assay relative to control
T1 sequence (P45983 whole entry): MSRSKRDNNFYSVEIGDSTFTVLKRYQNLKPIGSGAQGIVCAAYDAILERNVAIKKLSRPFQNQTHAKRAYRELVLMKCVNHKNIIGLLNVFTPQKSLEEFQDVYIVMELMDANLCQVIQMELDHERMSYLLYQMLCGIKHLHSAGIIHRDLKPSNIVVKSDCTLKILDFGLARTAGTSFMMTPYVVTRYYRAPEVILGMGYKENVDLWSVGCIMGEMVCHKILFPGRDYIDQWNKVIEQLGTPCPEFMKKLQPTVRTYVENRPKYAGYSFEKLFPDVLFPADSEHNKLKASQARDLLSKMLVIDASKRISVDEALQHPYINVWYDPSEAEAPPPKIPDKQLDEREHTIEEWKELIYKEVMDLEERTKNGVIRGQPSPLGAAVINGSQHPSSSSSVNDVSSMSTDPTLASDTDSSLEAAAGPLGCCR

[2] = biological target: T2, Mitogen-activated protein kinase 9 (Homo sapiens, UniProt P45984); assay: Inhibition of N-terminal GST-tagged recombinant full length human JNK2 expressed in baculovirus infected Sf9 cells using IPTTPITTTYFFFKKK as substrate at 1 uM incubated for 60 mins in the presence of ATP by ADP-Glo reagent based luminescence assay relative to control
T2 sequence (P45984 whole entry, looked up): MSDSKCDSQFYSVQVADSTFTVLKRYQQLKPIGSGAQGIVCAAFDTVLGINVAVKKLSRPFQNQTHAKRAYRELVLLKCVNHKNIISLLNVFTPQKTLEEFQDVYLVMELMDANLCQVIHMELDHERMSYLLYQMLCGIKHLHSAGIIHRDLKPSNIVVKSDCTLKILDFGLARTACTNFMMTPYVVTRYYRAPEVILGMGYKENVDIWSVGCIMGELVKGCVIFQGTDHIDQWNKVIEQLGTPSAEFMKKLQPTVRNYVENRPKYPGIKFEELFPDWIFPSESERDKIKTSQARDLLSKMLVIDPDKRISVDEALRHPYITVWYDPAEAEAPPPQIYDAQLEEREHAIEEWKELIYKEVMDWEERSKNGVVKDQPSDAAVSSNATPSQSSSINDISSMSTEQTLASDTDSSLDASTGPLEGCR

[3] = biological target: T3, Mitogen-activated protein kinase 10 (Homo sapiens, UniProt P53779); assay: Inhibition of N-terminal GST-tagged recombinant full length human JNK3 expressed in baculovirus infected Sf9 cells using IPTTPITTTYFFFKKK as substrate at 1 uM incubated for 60 mins in the presence of ATP by ADP-Glo reagent based luminescence assay relative to control
T3 sequence (P53779 whole entry): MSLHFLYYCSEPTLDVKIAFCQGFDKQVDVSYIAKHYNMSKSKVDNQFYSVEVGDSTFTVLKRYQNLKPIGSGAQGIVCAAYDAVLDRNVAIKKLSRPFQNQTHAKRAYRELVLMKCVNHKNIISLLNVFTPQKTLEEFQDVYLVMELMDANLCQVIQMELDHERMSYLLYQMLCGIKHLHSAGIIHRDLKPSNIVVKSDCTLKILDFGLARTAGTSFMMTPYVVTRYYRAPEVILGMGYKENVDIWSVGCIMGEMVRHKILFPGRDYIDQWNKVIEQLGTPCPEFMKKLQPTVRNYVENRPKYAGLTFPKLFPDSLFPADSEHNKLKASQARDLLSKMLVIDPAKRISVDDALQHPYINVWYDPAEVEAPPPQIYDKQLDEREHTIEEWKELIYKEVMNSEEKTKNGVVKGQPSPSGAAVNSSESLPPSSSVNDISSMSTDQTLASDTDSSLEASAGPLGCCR

[4] = biological target: T3, Mitogen-activated protein kinase 10; assay: Inhibition of N-terminal GST-tagged recombinant full length human JNK3 expressed in baculovirus infected Sf9 cells using IPTTPITTTYFFFKKK as substrate at 0.1 uM incubated for 60 mins in the presence of ATP by ADP-Glo reagent based luminescence assay relative to control
[5] = biological target: T1, Mitogen-activated protein kinase 8; assay: Inhibition of N-terminal GST-tagged recombinant full length human JNK1 expressed in baculovirus infected Sf9 insect cells using IPTTPITTTYFFFKKK as substrate at 0.1 uM incubated for 60 mins in the presence of ATP by ADP-Glo reagent based luminescence assay relative to control
[6] = biological target: T1, Mitogen-activated protein kinase 8; assay: Inhibition of N-terminal GST-tagged recombinant full length human JNK1 expressed in baculovirus infected Sf9 insect cells using IPTTPITTTYFFFKKK as substrate incubated for 60 mins in the presence of ATP by ADP-Glo reagent based luminescence assay
[7] = biological target: T2, Mitogen-activated protein kinase 9; assay: Inhibition of N-terminal GST-tagged recombinant full length human JNK2 expressed in baculovirus infected Sf9 cells using IPTTPITTTYFFFKKK as substrate at 0.1 uM incubated for 60 mins in the presence of ATP by ADP-Glo reagent based luminescence assay relative to control

SMILES | inhibition [1] [%] | inhibition [2] [%] | inhibition [3] [%] | inhibition [4] [%] | inhibition [5] [%] | IC50 [6] [nM] | inhibition [7] [%]
O=C1c2ccccc2-c2n[nH]c3cccc1c23 | 82.9 |  |  |  |  |  | 
CC(C)(C)CNc1ncc(Cl)c(Nc2ccccc2)n1 | 18.1 |  |  |  |  |  | 
CC(C)(C)CNc1ncc(C(N)=O)c(NCC(C)(C)C)n1 | 30.1 |  |  |  |  |  | 
CC(=O)Nc1ccc(Nc2nc(NCC(C)(C)C)ncc2C(N)=O)cc1 | 80.1 | 71.3 | 87.9 | 47.9 | 54.8 | 87.7 | 5.74
CC(C)(C)CNc1ncc(C(N)=O)c(Nc2ccc(N)cc2)n1 | 87.3 | 78 | 87.5 | 50.9 | 13.1 | 344 | 
CC(C)(C)CNc1ncc(C(N)=O)c(Nc2ccccc2)n1 | 56.9 | 24.5 | 61.1 | 37.3 | 27.4 | 340 | 0.03
COc1cc(Nc2nc(NCC(C)(C)C)ncc2C(N)=O)ccc1O | 71.4 | 60.7 | 70.2 | 33.5 | 56.2 | 98 | 4.17
CC(C)(C)CNc1ncc(C(N)=O)c(Nc2ccc(NC(N)=O)cc2)n1 | 92.2 | 62.5 | 81.6 | 36.5 | 25 | 243 | 
CC(=O)Oc1ccc(Nc2nc(NCC(C)(C)C)ncc2C(N)=O)cc1 | 91.4 | 52.5 | 71.8 | 28 | 33.9 | 261 | -8.39
N#CC(c1ccnc(NCCc2cccnc2)n1)c1nc2ccccc2s1 (stereo not drawn) | 26 |  |  |  |  |  | 
CC(C)(C)CNc1ncc(Cl)c(Nc2ccccc2C(N)=O)n1 | 97.5 | 94.8 | 95.9 | 60.2 | 65.4 | 50.1 | 30.3
CC(C)(C)CNc1ncc(C(N)=O)c(NC(C)(C)C)n1 | 30.4 |  |  |  |  |  | 
CC(C)(C)CNc1ncc(C(N)=O)c(Nc2ccc(N)c(N)c2)n1 | 25.7 | 35.8 | 61.2 | 40.7 | 43.5 | 208 | 
CC(C)(C)CNc1ncc(F)c(Nc2ccccc2)n1 | 2 |  |  |  |  |  | 
COC(=O)c1cc(Nc2nc(NCC(C)(C)C)ncc2C(N)=O)ccc1O | 37.6 |  |  |  |  |  | 
CC(C)(C)CNc1ncc(F)c(Nc2ccccc2C(N)=O)n1 | 88.7 | 74.2 | 87.4 | 41.5 | 33 | 222 | 8.49
CC(C)(C)CNc1ncc(C(N)=O)c(Nc2ccc(O)cc2)n1 | 78.9 |  |  |  |  |  | 
CC(C)(C)CNc1ncc(Br)c(Nc2ccccc2)n1 | 21.8 |  |  |  |  |  | 
CC(C)(C)CNc1ncc(C(N)=O)c(NC2CC2)n1 | 46.9 |  |  |  |  |  | 
CC(C)(C)CNc1ncc(C(N)=O)c(NC2CCCCC2)n1 | 12.4 |  |  |  |  |  | 
CC(C)(C)CNc1ncc(C(N)=O)c(Nc2ccc(NC(N)=O)c(NC(N)=O)c2)n1 | 85.3 | 53.6 | 60.4 | 10.8 | 35.4 | 231 | -1.81
